# Where no end group is shown, it is not given here.
# What was measured:
# [1] = tested on: human colon cancer cells (HCT116); assay: In vitro anti-tumor activity, MTT assay, HCT116; assay type: cell-based; details: HCT-116, 48 h, read-out: HCT116 (IC50, μM)
# Description: Preparation of DMEM/F-12 culture broth: HyClone MEM/F-12 medium, 500 mL per bottle, add 10% fetal bovine serum and 1% solution of penicillin, stored in a refrigerator at 4° C.
# (§1) Preparation of MTT solution: MTT dry powder 0.5 g was dissolved in 100 mL PBS buffer, filtered and sterilized with a […] filter, and placed in a refrigerator at −12° C. for storage.
# (§2) Three types of tumor cells used in the assay for antitumor activity are human hepatoma cells (HepG2), leukemia cells (K562) and human colon cancer cells (HCT116).
# Human colon cancer cell HCT116 test
# The culture fluid used for HCT116 cells was a DMEM/F-12 cell culture solution containing 1% penicillin-streptomycin solution, 10% fetal bovine serum. Specific steps:
# The cells were counted using a hemocytometer and diluted with DMEM/F-12 medium to 5×10^4 cells/mL.
# (§3) Add 100 μL of cell suspension to each well of a 96-well plate, mix, incubated at 37° C. for 24 h.
# (§4) The desired test compounds were diluted to 5 concentrations: 2 mM, 0.2 mM, 20 μM, 2 μM, 0.2 μM, and 0.5 μL/well was sequentially added according to the concentration, incubated at 37° C. for 48 h.
# (§5) MTT was added at a concentration of 5 mg/mL, incubated at 37° C. for 4 h.
# Cells were lysed by addition of DMSO, and the OD values at 490 nm and 630 nm were measured with a microplate reader.
# (§6) Processing data, calculate IC50 value according to OD value.
# [2] = tested on: human hepatoma cells (HepG2); assay: In vitro anti-tumor activity, MTT assay, HepG2; assay type: cell-based; details: HepG2, 48 h, read-out: HepG2 (IC50, μM)
# Description: Formulation of DMEM low glucose medium: HyClone MEM low glucose medium, 500 mL per bottle, add 10% fetal bovine serum and 1% solution of penicillin, stored in a refrigerator at 4° C.
# as §1, §2
# Human Hepatocarcinoma Cell (HepG2) Test
# The culture medium for HepG2 cells was DMEM cell culture medium containing 1% penicillin-streptomycin solution and 10% fetal bovine serum, and the culture condition was 37° C. and a constant temperature incubator containing 5% CO2. Specific steps:
# The cells were counted using a hemocytometer and diluted with DMEM low glucose to 5×10^4 cells/mL.
# as §3, §4, §5
# Cells were lysed by addition of DMSO, and the OD values at 490 nm and 630 nm were measured with a microplate reader. […]
# [3] = tested on: leukemia cells (K562); assay: In vitro anti-tumor activity, MTT assay, K562; assay type: cell-based; details: Homo sapiens, K562, 48 h, read-out: K562 (IC50, μM)
# Description: as §1, §2
# K562 cells were cultured in RPMI1640 cell culture medium containing 1% penicillin-streptomycin solution, 10% fetal bovine serum, and incubated at 37° C. in a constant temperature incubator containing 5% CO2. Specific steps:
# The cells were counted using a hemocytometer and diluted to 5×10^4 cells/mL with RPMI medium;
# 100 μL of cell suspension was added to each well of a 96-well plate, incubated at 37° C. for 2 h.
# as §4
# MTT was added at a concentration of 5 mg/mL, incubated at 37° C. for 4 hours.
# Isopropanol and hydrochloric acid lysis were added, and the OD values at 570 nm and 630 nm were measured with a microplate reader.
# as §6
# [4] = tested on: E-selectin mediated adhesion of THP-I to HUVECs; assay: Adhesion test of human acute monocytic leukemia cells and endothelial cells; assay type: cell-based; details: THP-I on TNF-α stimulated HUVECs, FIG. 4
# Description: Example 3. Adhesion Test of Compounds Against Human Acute Monocytic Leukemia Cells and Endothelial Cells
# Endothelial cell line HUVEC and human acute monocytic leukemia cell line THP-I were purchased from ATCC and cultured at 37° C. in a 5% CO2 saturated humidity medium, which contains 10% fetal bovine serum, RPMI 1640 with 100 μg/mL penicillin and F-12 with 100 μg/mL streptomycin, the cells were used at logarithmic growth phase.
# Polylysine (20 μg/ml) (Shanghai Yuanye Biotechnology Co., Ltd.) was coated on a black 96-well cell culture plate (Corning Incorporated costar 3603) and incubated at 37° C. for 12 h. Endothelial cells HUVECs were seeded at a concentration of […] in black 96-well cell culture plates. After incubation at 37° C. for 36 h, the medium in the cell culture plates was removed. The experimental group was added with F-12 medium with 20 ng/ml TNF-α, F-12 medium without TNF-α was added to the control group, all the groups were incubated for 6 h at 37° C. […] 100 μl permeation solution (BIOSHARP) was added to each well and fluorescence was measured with a Synergy 4 Multiplate Reader (Biotek) (Ex, 485 nm; Em, 528 nm). The inhibitory effect of the candidate compound is inversely proportional to the fluorescence intensity, and the lower the fluorescence value, the stronger the inhibition effect of the compound.
# [5] = Self-assembly in aqueous solution (proton NMR in DMSO-d6 vs D2O); assay type: physicochemical; details: HCPT NMR signals disappear in D2O
# Text: The micelles enclose the hydrophobic structure inside. […] This phenomenon also exists in the conjugate of PEG and HCPT, and it is confirmed by dynamic light scattering and transmission electron microscopy, which showing it can form nanospheres or nanorods with about 200 nm diameter.
compound,measurement,setting,value
"CC[C@@]1(O)C(=O)OCc2c1cc1n(c2=O)Cc2cc3cc(O)ccc3nc2-1 [HCPT, 10-hydroxycamptothecin]",IC50,[1],< 1 µM
same,IC50,[2],< 1 µM
same,IC50,[3],< 1 µM
Compound 9 (CIELLQAR-OH; also: Cys1 connects to remainder of compound 9 through SH and amino group),anti-E-selectin mediated cell adhesion in vitro,[4],significant anti-E-selectin mediated cell adhesion
same,self-assembly in aqueous solution,[5],self-assembled into nano-micelles

# Reference: US11413281B2, “Ternary conjugate of antitumor drug, and synthesis and application” (priority 2016, dated 2022)
